One data set has as its system CLL cells. Description: CLL cell cytotoxicity, MTS assay. In kind it is cell-based, human. Conditions: 72 hours. The procedure: (§1) For cytotoxicity assays, 3×10^6 CLL cells/well were cultured in 24 well tissue culture plates in 1.5 mL of Hybridoma SFM™ (Gibco, Long Island, N.Y.) as described by Levesque et al. (Levesque et al. 2001) (Levesque et al. 2003) All cultures were incubated at 37° C., 5% CO2 in air. […] (Levesque et al. 2003)
(§2) Based on the induction of apoptosis in CLL cells, we tested several analogs of COG449 for cytotoxicity against CLL cells freshly isolated from a number of patients and against normal B-cells from healthy volunteers (Table 4). Cells were cultured with the agents for 72 hours, and the viable cells were assessed for cytotoxicity using the MTS assay. […] We also analyzed the effect of shRNA-mediated knockdown of SET on the growth of B-cell lymphoma cell lines.

The subject of a further data set is normal B-cells. Description: Cytotoxicity to normal B-cells from healthy volunteers, MTS assay. In kind it is cell-based, human. Conditions: normal B-cells from healthy volunteers, 72 hours, read-out: Normal ED50.
Source text: (§3) CLL was diagnosed according to the NCl Working Group criteria (Hallek et al. 2008). Healthy volunteers and CLL patients from the Duke University and Durham Va. Medical Centers were enrolled in IRB-approved research protocols to collect clinical data and blood. Subjects gave signed informed consent prior to phlebotomy, in accordance with the Declaration of Helsinki. Blood was collected from participants into heparin-tubes, and CLL cells were purified as noted before (Weinberg et al. 2007). Briefly, CLL cells were isolated using the RosetteSep® B cell enrichment cocktail (catalog #15024/15064; Stem Cell Technologies, Vancouver, BC, Canada) according to the manufacturer's directions. This method yielded CLL cell purity of greater than 95% CD5+CD19+ B-cells as determined by flow cytometry. Normal B-lymphocytes were isolated using the EasySep® B-cell enrichment cocktail (catalog #15024/15064; Stem Cell Technologies, Vancouver, BC, Canada) according to the manufacturer's directions, with a purity of >94% CD 19+ lymphocytes.
as §1, §2

Experiment in data set [1]: as above
The format is cell-based, human. Conditions: human.
Source text: as §3, §1, §2

In the next data set the test system is SET (α and β isoforms). Conditions: 10 μM biotin-labeled peptide, pull-down on beads, Western blot. (In general: A western blot detects proteins with antibodies after separation by electrophoresis.)
Chain of SET (α and β isoforms) (Q01105 38-290 limits assumed): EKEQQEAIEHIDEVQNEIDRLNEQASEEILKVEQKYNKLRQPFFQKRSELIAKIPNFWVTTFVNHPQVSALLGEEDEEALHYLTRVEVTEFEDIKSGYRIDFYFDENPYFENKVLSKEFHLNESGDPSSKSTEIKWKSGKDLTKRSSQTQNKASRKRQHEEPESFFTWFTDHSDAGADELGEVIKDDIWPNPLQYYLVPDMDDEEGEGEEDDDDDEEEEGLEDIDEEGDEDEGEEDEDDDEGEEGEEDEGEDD
For another data set, the system named is Ramos cells. Description: Growth inhibition / cytotoxicity in Ramos NHL cells. The format is cell-based, human. The procedure:
FIG. 6: SET antagonism is cytotoxic to CLL cells and inhibits NHL cell growth in vitro. (A) Dose response curves for COG445 treatment of CLL cells from 7 patients or normal B-cells from 5 volunteers. (B) Dose response curves for COG449 treatment on CLL cells from 7 patients. (C) Raji NHL cells were transduced with SET shRNA or control lentivirus and knockdown was assessed by Western blotting from two samples of each.
FIG. 7: Cytotoxicity of COG449 can be modulated by a PP2A inhibitor in Ramos cells. Ramos cells were pretreated for 5 minutes with or without 1 nM OA before treatment with 1 μM COG449. After 24 hours, cytotoxicity was assessed using the […] assay reagent to detect viable cells.
as §2

Setting [2] is: CLL cells freshly isolated from patients, read-out: CLL ED50.
Setting [3] is: CLL cells from 7 patients, read-out: ED50 of cytotoxicity to CLL cells.

Where two headings read alike, the source gives them in different places. *1 amine or outer side, *2 acyl side, *3 side chain or, on linkers, in order; H or OH if unused. Bridges are numbered along the chain shown (N, C = ends). Roman numbers before positions name the chains, in order. [ ]: non-standard residue; d: D form. BMOE = O=C1CC([*:1])C(=O)N1CCN1C(=O)CC([*:2])C1=O; Aib = CC(C)(N)C(=O)O

Description for SET (α and β isoforms): Complexes bound to Neutravidin-Agarose (NA) beads were then detected by Western blotting. Lane 1 contains 20 μg of cell lysate as a loading control. […] Lysates were incubated with biotin reagents for 1 hr before addition of NA beads and then incubated for an additional hour. After rigorous washing, the beads were boiled in SDS PAGE buffer, separated by PAGE and blotted to nitrocellulose.
CLL cells were lysed in NP40 buffer (50 mM Tris, 0.2% NP40, 150 mM NaCl) by a single freeze thaw cycle. Lysate protein concentration was adjusted to 5 mg/mL. Streptavidin agarose beads (1 mL) were washed with 10 mL of NP40 buffer, and 0.5 mL of beads was added to 1 mL of extract. ABeads were then collected by filtration through a disposable mini-column (Bio-Rad), and the flow-through extract was collected for analysis. Following washing with 100 mL of chilled NP40 buffer, the beads were removed from the column, collected by centrifugation, and 75 μL of 4× Laemmli buffer was added. Beads were vortexed and heated to 90° C. for 10 min to ensure that all proteins were released from the beads. Proteins were separated by SDS PAGE and Western blotting was used to determine if the COG133 and COG112 peptides bound to both isoforms of SET from a CLL patient sample.

Take “AS(Aib)LRKL(Aib)KRLL (Ac-AS[Aib]LRKL[Aib]KRLL-NH2) [COG1410, Aib = aminoisobutyric acid]”: the EC50 in the data set with CLL cells (setting [2]) was 5.7 ± 3 µM; in the data set with normal B-cells, over 20 µM.

In the case of “I: Ac-RQIKIWFQNRRMKWKKCLRVRLASHLRKLRKRLL-NH2 / II: Ac-RQIKIWFQNRRMKWKKCLRVRLASHLRKLRKRLL-NH2 (disulfide I:17-II:17 (inferred)) [COG445]”, the EC50 is 0.11 µM in the data set with CLL cells (setting [3]) and over 10 µM in the data set on normal B-cells. In addition, the EC50 at 72 h in data set [1] was at least 10 µM.

On to “RQIKIWFQNRRMKWKK-C-LRVRLASHLRKLRKRLL [COG112]”, for which the EC50 in the data set on CLL cells (setting [2]) is 1.4 ± 0.7 µM; in the data set on normal B-cells, over 20 µM. Also, the “binding to SET isoforms in CLL cell lysate” value in the data set with SET (α and β isoforms) was “binds to both SET isoforms”.

Take oakadaic acid [reference compound]: the “cytotoxicity in Ramos cells” value in the data set on Ramos cells (1 nM OA alone, 24 hours) is “not cytotoxic”.

For the substance “I: Ac-RQIKIWFQNRRMKWKKCLRVRLASHLRKLRKRLL-NH2 / II: Ac-RQIKIWFQNRRMKWKKCLRVRLASHLRKLRKRLL-NH2 (linker I:17-II:17 via BMOE) [COG449]”, the EC50 with CLL cells (setting [3]) is 0.103 µM. Moreover, the “cytotoxicity in Ramos cells” value in the data set with Ramos cells (1 μM COG449, 24 hours) is “robust cytotoxic effect”. In the data set with Ramos cells (1 μM COG449 after pretreatment with 1 nM OA, 24 hours), the “cytotoxicity in Ramos cells with PP2A inhibitor” value is given as “partially counteracted by treatment with OA”.

In the case of LRVRLASHLRKLRKRLL [COG133], the figures for the EC50 in the data set with CLL cells (setting [2]) and with normal B-cells were 4.4 ± 1.5 µM and over 20 µM, respectively. Further, the “binding to SET isoforms in CLL cell lysate” value with SET (α and β isoforms) was “binds to both SET isoforms”.

For LLRKRLKRLHSALRVRL [COG056], the EC50 in the data set on CLL cells (setting [2]) was 12.9 ± 4.6 µM; with normal B-cells, over 20 µM.

For the origin of these results see patent publication US8623601B2, “Methods of diagnosing cancer” (Cognosci, Inc., priority 2011, dated 2014).
